Test system: 379773-124-R-J2-PDC spheroid viability
Test: Anticancer human tumor 379773-124-R-J2-PDC patient-derived endometrial carcinoma cell line growth inhibition [POLQ]
Details: spheroids with HUVEC and MSC; for IC50: curve of first compound; for viability, T/C: stronger effect = lower value
How it was run: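 Complex spheroid viability model combining PDC tumour cells with endothelial (HUVEC) and MSC stromal cells. Novobiocin, ART-558 or RP6685 were tested singly and in combination with standard and investigational anticancer drugs. Each was titrated in half-log steps from near clinical Cmax, or from 10 microM where Cmax was unknown.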

[1] = second compound 0.0316 µM, first compound 0.0316 µM
[2] = second compound 0.0316 µM, first compound 0.1 µM
[3] = second compound 0.0316 µM, first compound 0.316 µM
[4] = second compound 0.0316 µM, first compound 1 µM
[5] = second compound 0.0316 µM, first compound 3.16 µM
[6] = second compound 0.0316 µM, first compound 10 µM
[7] = second compound 0.1 µM, first compound 0.0316 µM
[8] = second compound 0.1 µM, first compound 0.1 µM
[9] = second compound 0.1 µM, first compound 0.316 µM
[10] = second compound 0.1 µM, first compound 1 µM
[11] = second compound 0.1 µM, first compound 3.16 µM
[12] = second compound 0.1 µM, first compound 10 µM
[13] = second compound 0.316 µM, first compound 0.0316 µM
[14] = second compound 0.316 µM, first compound 0.1 µM
[15] = second compound 0.316 µM, first compound 0.316 µM
[16] = second compound 0.316 µM, first compound 1 µM
[17] = second compound 0.316 µM, first compound 3.16 µM
[18] = second compound 0.316 µM, first compound 10 µM
[19] = second compound 1 µM, first compound 0.0316 µM
[20] = second compound 1 µM, first compound 0.1 µM
[21] = second compound 1 µM, first compound 0.316 µM
[22] = second compound 1 µM, first compound 1 µM
[23] = second compound 1 µM, first compound 3.16 µM
[24] = second compound 1 µM, first compound 10 µM
[25] = second compound 3.16 µM, first compound 0.0316 µM
[26] = second compound 3.16 µM, first compound 0.1 µM
[27] = second compound 3.16 µM, first compound 0.316 µM
[28] = second compound 3.16 µM, first compound 1 µM
[29] = second compound 3.16 µM, first compound 3.16 µM
[30] = second compound 3.16 µM, first compound 10 µM
[31] = second compound 10 µM, first compound 0.0316 µM
[32] = second compound 10 µM, first compound 0.1 µM
[33] = second compound 10 µM, first compound 0.316 µM
[34] = second compound 10 µM, first compound 1 µM
[35] = second compound 10 µM, first compound 3.16 µM
[36] = second compound 10 µM, first compound 10 µM
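Also: spheroids exposed to drugs for seven days before readout.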
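For viability, T/C in this document: percent viability relative to DMSO vehicle control taken as 100%.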

CCc1cc2c(N3CCc4c(cc(Cn5ccnc5)cc4-c4cn(C)nc4C(F)(F)F)C3=O)cc(C)nc2c(OC)n1 + COC1C(OC(N)=O)C(O)C(Oc2ccc3c(O)c(NC(=O)c4ccc(O)c(CC=C(C)C)c4)c(=O)oc3c2C)OC1(C)C
IC50 (second compound 0.0316 µM): 1.22 µM | IC50 (second compound 0.1 µM): 2.13 µM | IC50 (second compound 0.316 µM): 3.32 µM | IC50 (second compound 1 µM): 1.5 µM | IC50 (second compound 3.16 µM): 2.07 µM | IC50 (second compound 10 µM): 3.15 µM | viability, T/C [1]: 68.2% | viability, T/C [2]: 63.2% | viability, T/C [3]: 53.7% | viability, T/C [4]: 53% | viability, T/C [5]: 45.5% | viability, T/C [6]: 48.5% | viability, T/C [7]: 62.2% | viability, T/C [8]: 62.3% | viability, T/C [9]: 58.1% | viability, T/C [10]: 51.3% | viability, T/C [11]: 49.4% | viability, T/C [12]: 41.7% | viability, T/C [13]: 68.5% | viability, T/C [14]: 63.6% | viability, T/C [15]: 63.8% | viability, T/C [16]: 52.6% | viability, T/C [17]: 49.2% | viability, T/C [18]: 46.3% | viability, T/C [19]: 66.4% | viability, T/C [20]: 69.4% | viability, T/C [21]: 58.1% | viability, T/C [22]: 54.6% | viability, T/C [23]: 43.8% | viability, T/C [24]: 37.8% | viability, T/C [25]: 68.4% | viability, T/C [26]: 59.6% | viability, T/C [27]: 50.1% | viability, T/C [28]: 55.8% | viability, T/C [29]: 50% | viability, T/C [30]: 46.5% | viability, T/C [31]: 77% | viability, T/C [32]: 58.7% | viability, T/C [33]: 61.5% | viability, T/C [34]: 55.7% | viability, T/C [35]: 54.9% | viability, T/C [36]: 42.2%

CNCc1ccc(-c2[nH]c3cc(F)cc4c3c2CCNC4=O)cc1 + Nc1ccc(C#CCN(C(=O)Cc2ncc(C(F)(F)F)cc2C(F)(F)F)c2ccc(F)cc2)nn1
IC50 (second compound 0.0316 µM): > 10 µM | IC50 (second compound 0.1 µM): > 10 µM | IC50 (second compound 0.316 µM): > 10 µM | IC50 (second compound 1 µM): > 10 µM | IC50 (second compound 3.16 µM): > 10 µM | IC50 (second compound 10 µM): > 10 µM | viability, T/C [1]: 92.7% | viability, T/C [2]: 91.7% | viability, T/C [3]: 91.2% | viability, T/C [4]: 101% | viability, T/C [5]: 99.8% | viability, T/C [6]: 99.7% | viability, T/C [7]: 84.4% | viability, T/C [8]: 90.7% | viability, T/C [9]: 87.5% | viability, T/C [10]: 95.8% | viability, T/C [11]: 101% | viability, T/C [12]: 79.6% | viability, T/C [13]: 101% | viability, T/C [14]: 95.4% | viability, T/C [15]: 85.9% | viability, T/C [16]: 87.1% | viability, T/C [17]: 93.8% | viability, T/C [18]: 93.3% | viability, T/C [19]: 90.4% | viability, T/C [20]: 101% | viability, T/C [21]: 91.2% | viability, T/C [22]: 91.2% | viability, T/C [23]: 92.9% | viability, T/C [24]: 83.4% | viability, T/C [25]: 88.2% | viability, T/C [26]: 86% | viability, T/C [27]: 84.8% | viability, T/C [28]: 86% | viability, T/C [29]: 96.3% | viability, T/C [30]: 79.4% | viability, T/C [31]: 102% | viability, T/C [32]: 88.4% | viability, T/C [33]: 85.3% | viability, T/C [34]: 87.1% | viability, T/C [35]: 96.6% | viability, T/C [36]: 86.4%
